Data on 42 compounds can be found in the supplement of paper PMC8837787.

A value given as a limit tells only on which side of the number the result lay.

In the assay the test system is Saccharomyces cerevisiae ABC16-Green Monster. Briefly: growth inhibition at single dose (up to 150 µM), below the 70% cut-off for dose-response; higher = more potent. Conditions: 18 h; 30 °C; YPD. The method, boiled down: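 The entry is percent growth inhibition of drug-sensitive S. cerevisiae ABC16-Green Monster cells. After overnight growth in YPD at 30 °C, cells were diluted to OD600 0.1–0.2 and exposed to each library compound at 150 µM in 200 µl per well, in biological duplicates with untreated cultures beside them, and OD600 was read at 0 h and after 18 h at 30 °C. Any compound under 70% in both replicates was not carried to dose-response.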

On to `COc1cccc(C(=O)Nc2ccc(-c3nc4ccccc4[nH]3)cc2)c1`, for which the “growth inhibition at single dose” value was less than 70%. The same measure for `COC(=O)CCSc1c2ccc(Cl)cc2nc2ccc(OC)cc12`: less than 70%. The same measure for `Nc1ncc(-c2cn[nH]c2)cc1-c1nc2cc(Cl)cnc2[nH]1`: less than 70%. The figure for `Cc1ccc(Cn2ccs/c2=N/C(=O)c2cc3c(s2)CCCCC3)cc1` is less than 70%; for `COc1ccccc1C(=O)ON=C(N)Cc1cccc2ccccc12` it is less than 70%; for `Cc1ccc(C2CC(C(F)(F)F)n3nc(C(=O)N4CCN(C(c5ccccc5)c5ccccc5)CC4)cc3N2)cc1` (configuration not stated) it is less than 70%. `O=S(=O)(c1ccc2ccccc2c1)N1CCCC1c1nnc2ccccn12` (configuration not stated): the “growth inhibition at single dose” value was less than 70%. Consider `CC(=O)c1c(C)[nH]c(C(=O)Nc2nc3ccccc3[nH]2)c1C`, for which the “growth inhibition at single dose” value is less than 70%.

`CCOc1ccc2c(c1)CN(Cc1ccc(Cl)cc1)CO2`: the “growth inhibition at single dose” value is less than 70%. The same measure for `CNc1cc(C)nc(C2CN(C(=O)c3n[nH]c4ccccc34)CCO2)c1` (configuration not stated): less than 70%.

In the case of `O=C(Nc1nc2c(s1)CCCC2)c1cc(F)c(F)c(F)c1F`, the “growth inhibition at single dose” value is less than 70%. The figure for `CCn1c(O)c(C2NCCc3c2[nH]c2ccc(OC)cc32)c(=O)[nH]c1=O` (configuration not stated) is less than 70%; for `Cc1cc(C(=O)Cn2c(CO)nc3ccccc32)c(C)n1Cc1ccco1` it is less than 70%.

For the compound `CCC(Sc1nc2ccccc2o1)C(=O)Nc1nccs1` (configuration not stated), the “growth inhibition at single dose” value was less than 70%. `OC[C@H]1O[C@@H](n2c3ccc(Cl)cc3c3c(-c4cc5ccccc5o4)ncnc32)C(O)[C@H]1O` (some centres not stated): the “growth inhibition at single dose” value was less than 70%. As for `CN1CCN(c2ccc(NC(=O)c3csc4c3CCCC4)cc2)CC1`, the “growth inhibition at single dose” value is less than 70%. The same measure for `CC(=O)c1sc(NC(=O)Nc2ccc(C)cc2C)nc1C`: less than 70%. The figure for `COc1ccc(C)c2sc(N(Cc3cccnc3)C(=O)c3ccc(C#N)cc3)nc12` is less than 70%; for `COc1ccc2nc(C)cc(Nc3cccc(O)c3)c2c1` it is less than 70%; for `c1ccc2cc3c(Nc4ccc(N5CCOCC5)cc4)ccnc3cc2c1` it is less than 70%. The same measure for `O=S(=O)(c1ccc(Cl)cc1)N1CCN(C(=S)NCc2ccco2)CC1`: less than 70%. Turning to `NC(=O)c1cc(Br)ccc1OCCOc1ccccc1`, the “growth inhibition at single dose” value was less than 70%. The same measure for `CCC(=O)Nc1ccccc1C(=O)Nc1ccccn1`: less than 70%. The same measure for `O=C(O)C1Cc2c([nH]c3ccccc23)C(c2ccc(Cl)cc2Cl)N1` (configuration not stated): less than 70%; for `CC(C)Cc1ccc(C(C)c2nn3c(-c4ccco4)nnc3s2)cc1` (configuration not stated): less than 70%. As for `COc1cc(CN2CCC3(C=Cc4ccccc43)CC2)cc2c1OCO2`, the “growth inhibition at single dose” value is less than 70%. The same measure for `COc1ccccc1NC(=O)NCc1nc(-c2ccccc2)c[nH]1`: less than 70%.

Take `COCCn1c(C)cc(C(=O)CSc2nnc(C)s2)c1C`: the “growth inhibition at single dose” value is less than 70%. Take `c1ccc(NCCNc2nc(-c3ccncc3)nc3ccccc23)nc1`: the “growth inhibition at single dose” value was less than 70%. On to `O=C(Nc1nc(-c2ccccn2)cs1)c1ccc(-n2cncn2)cc1`, for which the “growth inhibition at single dose” value was less than 70%. The same measure for `c1cncc(NCc2ccc(-c3cc4ccncc4cc3OC3CCNCC3)s2)c1`: less than 70%. For `CC(=O)c1c(C)[nH]c(C(=O)Nc2ccc3ccccc3n2)c1C`, the “growth inhibition at single dose” value is less than 70%. The same measure for `CN1CCCN(C(=O)CCNC(=O)/C=C/c2ccco2)c2nc3ccccc3nc21`: less than 70%; for `COc1cc(Br)cc2cc(C(=O)Nc3cccc(C(F)(F)F)c3)c(=O)oc12`: less than 70%; for `COc1cc(C(=O)c2c(N)c(C#N)cn3c2nc2ccccc23)cc(OC)c1OC`: less than 70%.

For `O=C(Nc1cccc(C2=NCCN2)c1)Nc1cccc(C2=NCCN2)c1`, the “growth inhibition at single dose” value was less than 70%.

With `COc1ccc2c(=O)cc(C(Cl)(Cl)Cl)oc2c1`, the “growth inhibition at single dose” value is less than 70%.

As for `C=CCn1c(C)cc(C(=O)CNC(=O)Nc2ccccc2)c1C`, the “growth inhibition at single dose” value is less than 70%.

For the compound `CCNC(=O)C(C)Nc1nc(-c2cccnc2)nc2sc(C)c(C)c12` (configuration not stated), the “growth inhibition at single dose” value was less than 70%. The figure for `Cc1ccc2nc(C)cc(Nc3cccc(C(F)(F)F)c3)c2c1` is less than 70%; for `Cc1cc(C(=O)COC(=O)c2ccccc2C(F)(F)F)c(C)n1Cc1ccccc1Cl` it is less than 70%.

`COc1ccc2nc(C)cc(OCC(=O)NCc3ccccc3)c2c1`: the “growth inhibition at single dose” value is less than 70%.
